# Key:
# [1] = test system: GK rats (SLAC/GK, type 2 diabetes); test: Anti-diabetes (type II) activity of HPCs of NSAIAs in GK rats; format: in vivo; details: 30 mg/kg transdermally once per day, no fasting
# Procedure: (§1) A HPC in the present disclosure lowered blood glucose levels in rat models (SLAC/GK, type 2 diabetes, n=7). 30 mg/kg of 8% diethylaminoethyl acetylsalicylate.HCl salt (P-1, in 25% ethanol); 4-acetamidophenyl salicylyldimethylaminobutyrate.HCl (P-6, in 25% ethanol), diethylaminoethyl 5-(2,4-difluorophenyl)acetylsalicylate.5-(2,4-difluorophenyl)acetylsalicylic acid salt (P-8, in 25% ethanol), diethylaminoethyl salicylsalicylate.HCl salt (P-9, in 25% ethanol), diethylaminoethyl salicylate.AcOH(P-10, in 25% ethanol), diethylaminoethyl 5-acetamido-acetylsalicylate.HCl(P-58, in 25% ethanol), diethylaminoethyl acetylsalicylsalicylate. HCl salt (P-59, in 25% ethanol), diethylaminoethyl acetylsalicylsalicylsalicylate. HCl salt (P-60, in 25% ethanol) were administered transdermally to the backs (6 cm^2, fur was shaved) of GK rats (SLAC/GK, 14-16 weeks old) and normal SD rats (SLAC/SD, 14-16 weeks old) once per day (at 8 am) for 6 weeks.
# (§2) The blood glucose levels were measured once every 3 days at 4:30 pm (no fasting) from the third week to the sixth week as shown in Table 10a and 10b. […] Moreover, the blood glucose levels of the rats stayed at normal level (6-9 mmol/L, no fasting) after the treatment was stopped for 40 days.
# [2] = test system: autologous blood clots injected in femoral vein (pulmonary thrombus); test: Anti-thrombosis activity, autologous blood clots in rabbits; format: in vivo, Chinese White rabbits; details: 50 mg/kg topically to the back twice per day, 5 days
# Procedure: Eighteen Chinese White rabbits weighing between 3.0 and 3.5 kg (aged 6-7 months) were selected and divided into three groups (control, P-1 and […] groups, n=6). One hour before the experiment, thrombi were made by aspirating venous blood (1 ml) into a sterilized bottle to clot. To avoid fragmentation and slow lysis, the autologous blood clots were stabilized in temperature-controlled (70° C.) distilled water for 10 min. After anesthesia, the femoral veins were exposed and distally isolated, and autologous blood clots (0.05 g/kg) were injected through an indwelling catheter (20GA), which had been placed in the femoral vein isolated earlier. 50 mg/kg of diethylaminoethyl acetylsalicylate.HCl salt (P-1, 10% in 25% ethanol) and diethylaminoethyl acetylsalicylsalicylate.HCl salt (P-59, 10% in 25% ethanol) were topically applied to the back of the rabbits twice per day. After 5 days, rabbits were euthanized with an excessive intravenous injection of sodium amobarbital (60 mg/kg). The lungs and hearts were isolated to observe whether thrombi were present in the pulmonary arteries. The lungs were immersed in 10% formalin for 24 h. Consecutive transverse sections along the obstructed pulmonary arteries were paraffin-embedded and stained with hematoxylin-eosine. […]
# [3] = test system: SLAC:NOD-IDDM, type 1 diabetes; test: Anti-diabetes (type I) activity of HPCs of NSAIAs; format: in vivo, mice
# From the text: 10% aqueous solution of diethylaminoethyl acetylsalicylate.acetylsalicylic acid salt (P-1, […]); 4-acetamidophenyl salicylyldimethylaminobutyrate. HCl (P-6), diethylaminoethyl 5-(2,4-difluorophenyl)acetylsalicylate.5-(2,4-difluorophenyl)acetylsalicylic acid salt (P-8), diethylaminoethyl salicylsalicylate.AcOH(P-9), diethylaminoethyl 5-acetamido-acetylsalicylate. HCl (P-58), diethylaminoethyl 2-(ρ-isobutylphenyl) propionate.citric acid (P-59), diethylaminoethyl acetylsalicylsalicylate. acetylsalicylsalicylsalicylic acid salt (P-60) (equal to of 20 mg/kg of NSAIAs) were administered transdermally to the shaved back (about 1.5 cm^2) of mice twice per day (at 8 am and 5 pm) for 7 weeks.
# The blood glucose levels were measured once every 3 days at 4:30 pm (no fasting) from the fourth week to the seventh week as shown in Table 11.
# SLAC/DB/DB obese mice = test: Blood glucose and blood lipid levels in DB/DB mice; format: in vivo; details: 30 mg/kg transdermally once per day
# Procedure: HPCs in the present disclosure lowered blood glucose levels and blood lipid levels in mice models (SLAC/DB/DB, obese mice, n=7). 30 mg/kg of 8% diethylaminoethyl acetylsalicylate.HCl salt (P-1, in 25% ethanol); 4-acetamidophenyl salicylyldimethylaminobutyrate.HCl (P-6, in 25% ethanol), diethylaminoethyl 5-(2,4-difluorophenyl)acetylsalicylate.5-(2,4-difluorophenyl)acetylsalicylic acid salt (P-8, in 25% ethanol), diethylaminoethyl salicylsalicylate.HCl salt (P-9, in 25% ethanol), diethylaminoethyl salicylate.AcOH(P-10, in 25% ethanol), diethylaminoethyl 5-acetamido-acetylsalicylate.HCl(P-58, in 25% ethanol), diethylaminoethyl acetylsalicylsalicylate.HCl salt (P-59, in 25% ethanol), diethylaminoethyl acetylsalicylsalicylsalicylate.HCl salt (P-60, in 25% ethanol) were administered transdermally to the backs (4 cm^2,fur was shaved) of DB/DB mice(SLAC/DB/DB, 10-12 weeks old) once per day (at 8 am) for 5 weeks. The blood glucose levels were measured once per week and blood lipid levels were measured once every other week.
# normal SD rats (SLAC/SD) = test: Blood glucose in normal SD rats treated with HPCs of NSAIAs; format: in vivo; details: 30 mg/kg transdermally once per day, no fasting
# Procedure: as §1, §2
compound,measurement,setting,value
"CCN(CC)CCOC(=O)c1ccccc1OC(=O)c1ccccc1OC(C)=O.Cl [P-59, diethylaminoethyl acetylsalicylsalicylate. HCl salt]","blood glucose, Average (Week 2-5)",[1],8.2 ± 2.7 mmol/L
same,"blood glucose, Day 1",[1],16.8 ± 3.0 mmol/L
same,lung tissue and vascular walls (histology),[2],both lung tissue and vascular walls were normal
same,"blood glucose, Baseline",[3]; equal to 20 mg/kg of NSAIAs transdermally twice per day for 7 weeks,19.1 ± 3.2 mmol/L
same,"blood glucose, Average","[3]; fourth week to seventh week, no fasting, equal to 20 mg/kg of NSAIAs transdermally twice per day",8.9 ± 1.7 mmol/L
same,"Cholesterol (total), Day 1",SLAC/DB/DB obese mice,6.6 ± 0.4 mmol/L
same,"Cholesterol (total), Week 5",SLAC/DB/DB obese mice,4.7 ± 0.4 mmol/L
same,"Triglycerides, Day 1",SLAC/DB/DB obese mice,4.6 ± 0.4 mmol/L
same,"Triglycerides, Week 5",SLAC/DB/DB obese mice,4.6 ± 0.5 mmol/L
same,"blood glucose, Day 1",SLAC/DB/DB obese mice,14.2 ± 2.2 mmol/L
same,"blood glucose, Week 5",SLAC/DB/DB obese mice,8.1 ± 2.4 mmol/L
same,"blood glucose, Average (Week 2-5)",normal SD rats (SLAC/SD),5.8 ± 1.0 mmol/L
same,"blood glucose, Day 1",normal SD rats (SLAC/SD),5.7 ± 1.3 mmol/L
